The subject of assay [1] is tail flick (pain latency) in mice. The experiment in a line: Analgesic testing by tail flick test in mice. Type of assay: in vivo. The settings on record: Mus musculus, read-out: Antinociceptive action in % relative to control group; for inhibition in vivo at 1 mg/kg: 1 mg/kg intravenous. From the text: 2.) Analgesic Testing by Tail Flick Test in Mice
The mice were each individually put in a test cage and the base of the tail was exposed to the focused heat flux from an electric lamp (tail flick type 50/08/1.bc, Labtec, Dr. Hess). The lamp intensity was so set that the time from switching on of the lamp until sudden flicking away of the tail (pain latency) in untreated mice amounted to 3 to 5 seconds. Prior to administration of the solutions containing the compound according to the invention or the respective comparison solutions, the mice were pre-tested twice within five minutes and the average value of these measurements was calculated as a pre-test average value.
The solutions of the compound according to the invention of the general formula I and the comparison solutions were then administered intravenously. Pain was measured in each case 10, 20, 40 and 60 minutes after intravenous administration. The analgesic action was determined as an increase in pain latency (% of the maximum possible antinociceptive effect) in accordance with the following formula: […]
In this formula, the time T0 is the latency time prior to administration, the time T1 is the latency time after administration of active ingredient combination and the time T2 is the maximum exposure period (12 seconds)
2.) Analgesic Testing by Tail Flick Test in Mice:
The in-depth investigation into analgesic efficacy was performed using the tail flick test in mice, as described above.

The subject of assay [2] is phenylquinone-induced writhing in mice. Kind of assay: Analgesic testing by phenylquinone-induced writhing test in mice. Type of assay: in vivo, male NMRI mice. The settings on record: Mus musculus, read-out: Antinociceptive action in % relative to control group; for inhibition in vivo at 10 mg/kg: 10 mg/kg intravenous. The procedure:
1.) Analgesic Testing by Writhing Test in Mice
The investigation into analgesic efficacy was performed by phenylquinone-induced writhing in mice (modified after: I. C. Hendershot J. Forsaith, J. Pharmacol. Exp. There. 125, 237-240 (1959)). The corresponding literature description is hereby introduced as a reference and is deemed to be part of the disclosure.
Male NMRI mice weighing from 25 to 30 g were used for this purpose. Groups of 10 animals per substance dose received, 10 minutes after intravenous administration of the compounds tested, 0.3 ml/mouse of a 0.02% aqueous solution of phenylquinone (phenylbenzoquinone, Sigma, Deisenhofen; solution prepared with addition of 5% of ethanol and stored in a water bath at 45° C.) administered intraperitoneally. The animals were placed individually in observation cages. A push button counter was used to record the number of pain-induced stretching movements (writhing reactions=straightening of the torso with stretching of the rear extremities) for 5-20 minutes after phenylquinone administration. The control was provided by animals who received only physiological common salt solution.
The compounds were tested at the standard dosage of 10 mg/kg. Inhibition of the writhing reactions by a substance was calculated according to the following formula: [formula]
1.) Analgesic Testing by Writhing Test in Mice:
The in-depth investigation into analgesic efficacy was performed using phenylquinone-induced writhing in mice, as described above.

For the compound `O=C(CC1CCN(CCc2ccccc2)CC1)Nc1ccccc1` [Example 1, 2-(1-Phenethyl-piperidin-4-yl)-N-phenylacetamide], in assay [1] (0.1 mg/kg intravenous), the inhibition in vivo at 0.1 mg/kg turned out to be 56%.
With `O=C(C=C1CCN(CCc2ccccc2)CC1)Nc1ccccc1` [Example 3, 2-(1-Phenethyl-piperidine-4-ylidene)-N-phenylacetamide], in assay [2], the inhibition in vivo at 10 mg/kg turned out to be 69%.
In the case of `COc1ccccc1NC(=O)CC1CCN(CCc2ccccc2)CC1` [Example 4, N-(2-Methoxyphenyl)-2-(1-phenethylpiperidin-4-yl)-acetamide], the inhibition in vivo at 10 mg/kg in assay [2] was 100%.
The same measure, in the same setting: next, `COc1ccc(NC(=O)CC2CCN(CCc3ccccc3)CC2)cc1` [Example 5, N-(4-Methoxyphenyl)-2-(1-phenethyl-piperidin-4-yl)-acetamide]: 100%.
The same measure, in the same setting: next, `O=C(CC1CCN(CCc2ccccc2)CC1)Nc1ccccc1OC(F)(F)F` [Example 6, 2-(1-Phenethyl-piperidin-4-yl)-N-(2-trifluoromethoxy-phenyl)acetamide]: 99%; `COc1ccc(NCCC2CCN(CCc3ccccc3)CC2)cc1` [Example 7, (4-Methoxyphenyl)-[2-(1-phenethylpiperidin-4-yl)ethyl]amine]: 100%; `Oc1ccccc1NCCC1CCN(CCc2ccccc2)CC1` [Example 8, 2-[2-(1-Phenethylpiperidin-4-yl)ethylamino]phenol]: 100%.
As to `COc1cccc(NC(=O)CC2CCN(CCc3ccccc3)CC2)c1` [Example 9, N-(3-Methoxyphenyl)-2-(1-phenethyl-piperidin-4-yl)acetamide], in assay [2] (1 mg/kg intravenous), the inhibition in vivo at 1 mg/kg amounted to 56%.
Consider `COc1ccc(NC(=O)CC2CCN(CCc3ccccc3)CC2)cc1Cl` [Example 10, N-(3-Chloro-4-methoxyphenyl)-2-(1-phenethylpiperidin-4-yl)acetamide], for which the inhibition in vivo at 10 mg/kg in assay [2] came to 100%.
Regarding `O=C(CC1CCN(CCc2ccccc2)CC1)Nc1ccc(Cl)cc1F` [Example 11, N-(4-Chloro-2-fluorophenyl)-2-(1-phenethylpiperidin-4-yl)acetamide], in assay [2], the inhibition in vivo at 10 mg/kg is 100%.
Take `O=C(CC1CCN(CCc2ccccc2)CC1)Nc1cccc(C(F)(F)F)c1` [Example 12, 2-(1-Phenethylpiperidin-4-yl)-N-(3-trifluoromethyl-phenyl)acetamide]: the inhibition in vivo at 1 mg/kg in assay [1] was 21%.
On the same count and under the same terms, in the case of `FC(F)(F)c1cccc(NCCC2CCN(CCc3ccccc3)CC2)c1` [Example 13, [2-(1-Phenethyl-piperidin-4-yl)ethyl]-(3-trifluoromethyl-phenyl)amine] it was 31%.
In the case of `COc1cccc(NCCC2CCN(CCc3ccccc3)CC2)c1` [Example 14, (3-Methoxyphenyl)-[2-(1-phenethylpiperidin-4-yl)ethyl]amine], the inhibition in vivo at 10 mg/kg in assay [2] was 100%.
With `Oc1ccc(NCCC2CCN(CCc3ccccc3)CC2)cc1` [Example 15, 4-[2-(1-Phenethylpiperidin-4-yl)ethylamino]phenol], the inhibition in vivo at 10 mg/kg in assay [2] turned out to be 100%.
Turning to `Fc1cc(Cl)ccc1NCCC1CCN(CCc2ccccc2)CC1` [Example 16, (4-Chloro-2-fluorophenyl)-[2-(1-phenethylpiperidin-4-yl)ethyl]amine], the figures for the inhibition in vivo at 10 mg/kg in assay [2] and in assay [1] (10 mg/kg intravenous) were 80% and 31%, respectively.
Take `Oc1cccc(NCCC2CCN(CCc3ccccc3)CC2)c1` [Example 17, 3-[2-(1-Phenethylpiperidin-4-yl)ethylamino]phenol]: the inhibition in vivo at 10 mg/kg in assay [2] worked out at 100%.
Still for that read-out and setting: next, `COc1ccc(N(CCC2CCN(CCc3ccccc3)CC2)C(C)=O)cc1Cl` [Example 18, N-(3-Chloro-4-methoxyphenyl)-N-[2-(1-phenethylpiperidin-4-yl)ethyl]acetamide]: 100%.
Consider `CCC(=O)N(CCC1CCN(CCc2ccccc2)CC1)c1ccc(OC)c(Cl)c1` [Example 19, N-(3-Chloro-4-methoxyphenyl)-N-[2-(1-phenethylpiperidin-4-yl)ethyl]propionamide], for which the inhibition in vivo at 10 mg/kg in assay [2] amounted to 100%. Further, in assay [1], the inhibition in vivo at 1 mg/kg was 35%.
The matching figures for `COc1ccc(N(CCC2CCN(CCc3ccccc3)CC2)C(=O)c2ccccc2)cc1Cl` [Example 20, N-(3-Chloro-4-methoxyphenyl)-N-[2-(1-phenethylpiperidin-4-yl)ethyl]benzamide]: 88% and 23%.
In the same order, the values of `CC(=O)N(CCC1CCN(CCc2ccccc2)CC1)c1cccc(C(F)(F)F)c1` [Example 21, N-[2-(1-Phenethylpiperidin-4-yl)ethyl]-N-(3-trifluoromethylphenyl)acetamide] are 100% and 34%.
As to `CC(=O)N(CCC1CCN(CCc2ccccc2)CC1)c1ccccc1` [Example 22, N-[2-(1-Phenethylpiperidin-4-yl)ethyl]-N-phenylacetamide], the inhibition in vivo at 1 mg/kg in assay [1] worked out at 24%.
In the case of `CCC(=O)N(CCC1CCN(CCc2ccccc2)CC1)c1ccccc1` [Example 23, N-[2-(1-Phenethylpiperidin-4-yl)ethyl]-N-phenylpropionamide], in assay [2], the inhibition in vivo at 10 mg/kg came to 99%.
With `O=C(c1ccccc1)N(CCC1CCN(CCc2ccccc2)CC1)c1ccccc1` [Example 24, N-[2-(1-Phenethylpiperidin-4-yl)ethyl]-N-phenylbenzamide], the inhibition in vivo at 10 mg/kg in assay [2] was 100%. For the same compound, the inhibition in vivo at 1 mg/kg in assay [1] turned out to be 24%.

For the origin of these results see patent US20040171640A1, “Substituted 1-phenethylpiperidine compounds used as inter alia analgesics” (priority 2001, published 2004).
